Experimental data: ChEMBL document CHEMBL5614443, “Hybrids of 3-Hydroxypyridin-4(1H)-ones and Long-Chain 4-Aminoquinolines as Potent Biofilm Inhibitors of Pseudomonas aeruginosa Potentiate Tobramycin and Polymyxin B Activity” (J Med Chem, 2024)
Activity calls are given as the source filed them. No cut-off for these calls is given here.

What was measured:
[1] = system: Pseudomonas aeruginosa; experiment: Antibacterial activity against Pseudomonas aeruginosa PAO1 assessed as inhibition of bacterial growth incubated for 24 hrs by CLSI protocol based method; assay type: functional
[2] = system: Pseudomonas aeruginosa; experiment: Antibiofilm activity against Pseudomonas aeruginosa PAO1 assessed as inhibition of biofilm formation incubated for 24 hrs by crystal violet staining based analysis; assay type: functional, organism-based; details: PAO1, 24 h
[3] = system: Pseudomonas aeruginosa; experiment: Antibacterial activity against Pseudomonas aeruginosa PAO1 assessed as inhibition of bacterial growth at 0.1 to 50 uM measured upto 24 hrs by CLSI protocol based method; assay type: functional, organism-based; details: dose 0.1-50 µM
[4] = system: Pseudomonas aeruginosa; experiment: Antibiofilm activity against Pseudomonas aeruginosa PAO1 assessed as decrease in biofilm formation incubated for 24 hrs by LIVE/DEAD BacLight staining based 3D confocal laser scanning microscopy; assay type: functional, organism-based; details: dose 1-10 µM
[5] = Inhibition of quorum sensing system in wildtype Pseudomonas aeruginosa PAO1 assessed as inhibition of elastase production incubated for 24 hrs by elastin-congo red dye based absorbance assay
[6] = Inhibition of quorum sensing system in wildtype Pseudomonas aeruginosa PAO1 assessed as inhibition of rhamnolipid production incubated for 24 hrs by absorbance based microtiter plate reader analysis
[7] = Inhibition of quorum sensing system in wildtype Pseudomonas aeruginosa PAO1 assessed as inhibition of pyocyanin production incubated for 24 hrs by absorbance based analysis
[8] = Hemolytic activity in rabbit erythrocytes assessed as hemolysis rate at 200 uM incubated for 2 hrs by microplate reader analysis (reference value: 100 %); assay type: toxicity, cell-based, Oryctolagus cuniculus, Erythrocyte; details: read-out: Activity
[9] = Cytotoxicity against African green monkey Vero cells assessed as reduction in cell viability incubated for 24 hrs by MTT assay; assay type: toxicity, cell-based; details: chlorocebus sabaeus
[10] = Toxicity in Caenorhabditis elegans assessed as effect on survival at 100 uM measured at 48 hrs by bright-field microscopic analysis
[11] = system: Pseudomonas aeruginosa; experiment: Induction of Fe3+ chelating activity in Pseudomonas aeruginosa PAO1 assessed as increase in pyochelin production at 2.5 to 50 uM incubated for 24 hrs by fluorescence microplate reader; details: dose 2.5-50 µM
[12] = system: Pseudomonas aeruginosa; experiment: Induction of Fe3+ chelating activity in Pseudomonas aeruginosa PAO1 assessed as increase in pyoverdine production at 2.5 to 50 uM incubated for 24 hrs by fluorescence microplate reader; details: dose 2.5-50 µM
[13] = system: Pseudomonas aeruginosa; experiment: Antibacterial activity against Pseudomonas aeruginosa PAO1 assessed as bacterial survival rate at 1/2 MIC incubated for 24 hrs by LB agar plate method relative to control; assay type: functional
[14] = system: Pseudomonas aeruginosa; experiment: Antibacterial activity against Pseudomonas aeruginosa PAO1 infected in Caenorhabditis elegans assessed as reduction in worm mortality by measuring survival at 1/2 MIC by bright-field microscopic analysis (reference value: 24 hrs); assay type: functional
[15] = Metal chelating activity assessed as Fe3+ chelation by measuring iron chelation constant by fluorescence competition assay

Compound | MIC [1] | IC50 [2] | further results
Cc1cc(=O)c(O)c(CNCCCCCCCCNc2ccnc3cc(Br)ccc23)n1C | ≥ 512 µM | > 50 µM | 
O=c1cc(CNCCCCCCCCNc2ccnc3cc(Cl)ccc23)n(O)cc1O | ≥ 512 µM | > 50 µM | 
Cc1cc(=O)c(O)c(CNCCCCCNc2ccnc3ccccc23)n1C | ≥ 512 µM | > 50 µM | 
Cc1cc(=O)c(O)c(CNCCCNc2ccnc3ccccc23)n1C | ≥ 512 µM | > 50 µM | 
Cn1cc(O)c(=O)cc1CNCCCCCCCCNc1ccnc2cc(Cl)ccc12 | ≥ 512 µM | > 50 µM | 
O=c1cc(CNCCCCCCCCNc2ccnc3ccccc23)n(O)cc1O | ≥ 512 µM | > 50 µM | 
CC[C@H]1OC(=O)[C@H](C)[C@@H](O[C@H]2C[C@@](C)(OC)[C@@H](O)[C@H](C)O2)[C@H](C)[C@@H](O[C@@H]2O[C@H](C)C[C@H](N(C)C)[C@H]2O)[C@](C)(O)C[C@@H](C)CN(C)[C@H](C)[C@@H](O)[C@]1(C)O [AZITHROMYCIN] |  | 6.6 µM | 
Cc1cc(=O)c(O)c(CNCCCCCCCCNc2ccnc3cc(Cl)ccc23)n1C | ≥ 512 µM | 5.4 µM | Activity [3]: inactive; Activity [4]: Dose-Dependent Effect; IC50 [5]: 30.9 µM; IC50 [6]: > 50 µM; IC50 [7]: 23.7 µM
COc1ccc2c(NCCCCCCCCNC(=O)c3c(O)c(=O)cc(C)n3C)ccnc2c1 | ≥ 512 µM | > 50 µM | 
COc1ccc2c(NCCCCCCCCNCc3cc(=O)c(O)cn3C)ccnc2c1 | ≥ 512 µM | > 50 µM | 
NCCCCCCCCNc1ccnc2cc(Cl)ccc12 | ≥ 512 µM | > 50 µM | IC50 [5]: 43.5 µM; IC50 [6]: > 50 µM; IC50 [7]: > 50 µM; hemolysis at 2 h, 200 µM [8]: < 1.5%; CC50 at 24 h [9]: 189 µM; Activity [10]: Toxic; Activity [11]: Active; Activity [12]: Active
Cc1cc(=O)c(O)c(CNCCCCNc2ccnc3ccccc23)n1C | ≥ 512 µM | > 50 µM | 
Cc1cc(=O)c(O)c(CNCCCCCCCCNc2ccnc3cccc(Cl)c23)n1C | ≥ 512 µM | > 50 µM | 
Cc1cc(=O)c(O)c(CNCCCCCCCCCCNc2ccnc3cc(Cl)ccc23)n1C | ≥ 512 µM | > 50 µM | 
Cc1cc(=O)c(O)c(CNCCCCCCCCNc2ccnc3cc(F)ccc23)n1C | ≥ 512 µM | > 50 µM | 
Cc1cc(=O)c(O)c(CNCCCCCCCCNc2ccncc2)n1C | ≥ 512 µM | > 50 µM | 
Cc1cc(=O)c(O)c(CNCCCCCCCNc2ccnc3ccccc23)n1C | ≥ 512 µM | 13.2 µM | 
COc1ccc2c(NCCCCCCCCNCc3c(O)c(=O)cc(C)n3C)ccnc2c1 | ≥ 512 µM | 16 µM | 
Cc1cc(=O)c(O)cn1CCCCCCCCNc1ccnc2ccccc12 | ≥ 512 µM | > 50 µM | 
CCCCCn1c(C)cc(=O)c(O)c1CNCCCCCCCCNc1ccnc2cc(Cl)ccc12 | ≥ 512 µM | > 50 µM | 
Cc1cc(=O)c(O)c(CNCCCCCCCNc2ccnc3cc(Cl)ccc23)n1C | ≥ 512 µM | 9.4 µM | 
Cc1cc(=O)c(O)c(CNCCCCCCCCNc2ccnc3ccc(Cl)cc23)n1C | ≥ 512 µM | 18.3 µM | 
Cc1cc(=O)c(O)c(CNCCNc2ccnc3ccccc23)n1C | ≥ 512 µM | > 50 µM | 

Compound | MIC [1] | IC50 [2] | further results
Cc1cc(=O)c(O)c(CNCCCCCCCCCCNc2ccnc3ccccc23)n1C | ≥ 512 µM | 32.6 µM | 
CCCCn1c(C)cc(=O)c(O)c1CNCCCCCCCCNc1ccnc2ccccc12 | ≥ 512 µM | 8.9 µM | 
CCCCn1c(C)cc(=O)c(O)c1CNCCCCCCCCNc1ccnc2cc(Cl)ccc12 | ≥ 512 µM | 14.1 µM | 
NC[C@H]1O[C@H](O[C@H]2[C@H](O)[C@@H](O[C@H]3O[C@H](CO)[C@@H](O)[C@H](N)[C@H]3O)[C@H](N)C[C@@H]2N)[C@H](N)C[C@@H]1O [TOBRAMYCIN] |  |  | Survival [13]: ~20%; Survival [14]: 72 h
COCCn1c(C)cc(=O)c(O)c1CNCCCCCCCCNc1ccnc2ccccc12 | ≥ 512 µM | > 50 µM | 
Cc1cc(=O)c(O)c(CNCCCCCCNc2ccnc3ccccc23)n1C | ≥ 512 µM | 16.2 µM | 
Cc1cc(=O)c(O)c(C(=O)NCCCCCCCCNc2ccnc3ccccc23)n1C | ≥ 512 µM | 13 µM | 
Cc1cc(=O)c(O)c(CNCCCCCCNc2ccnc3cc(Cl)ccc23)n1C | ≥ 512 µM | 18.2 µM | 
Cc1cc(=O)c(OCc2ccccc2)c(CNCCCCCCCCNc2ccnc3cc(Cl)ccc23)[nH]1 | ≥ 512 µM | > 50 µM | 
Cn1cc(O)c(=O)cc1CNCCCCCCCCNc1ccnc2ccccc12 | ≥ 512 µM | > 50 µM | 
CCCn1c(C)cc(=O)c(O)c1CNCCCCCCCCNc1ccnc2ccccc12 | ≥ 512 µM | > 50 µM | 
Cc1cc(=O)c(O)c(CNCCCCCCCCNc2ccnc(Cl)c2)n1C | ≥ 512 µM | > 50 µM | 
Cc1cc(=O)c(O)c(CNCCCCCCCCNc2ccnc3cc(C(F)(F)F)ccc23)n1C | ≥ 512 µM | 12.9 µM | 
Cc1c(O)c(=O)ccn1C |  |  | pFe3+ [15]: 21.7
CCCCCn1c(C)cc(=O)c(O)c1CNCCCCCCCCNc1ccnc2ccccc12 | ≥ 512 µM | 23.6 µM | 
Cc1cc(=O)c(O)c(CNCCCCCCCCNc2ccnc3ccccc23)n1C | ≥ 512 µM | 8.1 µM | 
CCn1c(C)cc(=O)c(O)c1CNCCCCCCCCNc1ccnc2ccccc12 | ≥ 512 µM | > 50 µM | 
Cc1cc(=O)c(O)c(CNCCCCCCCCNc2ccnc3c(Cl)cccc23)n1C | ≥ 512 µM | > 50 µM | 
Cc1cc(=O)c(OCc2ccccc2)c(C(=O)NCCCCCCCCNc2ccnc3cc(Cl)ccc23)n1C | ≥ 512 µM | > 50 µM | Activity [11]: Active; Activity [12]: Active
POLYMYXIN B |  |  | Survival [13]: 18%; Survival [14]: 88 h
Cc1cc(=O)c(O)cn1CCCCCCCCNc1ccnc2cc(Cl)ccc12 | ≥ 512 µM | 25.6 µM | 
CCCCCCCc1[nH]c2ccccc2c(=O)c1O |  |  | Activity [12]: Active
